In US11149035B2, “Chemical compounds as H—PGDS inhibitors” (GlaxoSmithKline Intellectual Property Development Limited, priority 2017, dated 2021):

Molecular target: T1, haematopoietic prostaglandin D synthase (H-PGDS) (Homo sapiens, UniProt O60760)
T1 construct: Full length human H-PGDS cDNA (Invitrogen Ultimate ORF IOH13026) was amplified by PCR; 6-His (N); TEV protease cleavage site (N); made in house; host or cells: E. coli BL21 (DE3*)
Assay: H-PGDS RapidFire high throughput mass spectrometry assay (conversion of PGH2 to PGD2)
Format: biochemical
Settings: 10 nM H-PGDS, PGH2 formed in situ by COX-2 from arachidonic acid; four parameter curve fit; read-out: Potency Range (mean pIC50) (converted)
Summary of the method: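 His-tagged full-length human H-PGDS from E. coli converts PGH2, generated in situ at ~10 μM from arachidonic acid by FLAG-tagged human COX-2 from Sf9 cells. RapidFire SPE-triple quadrupole MS measures PGD2 against PGF2α as substrate surrogate; percent conversion is calculated.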

T1 sequence (O60760 whole entry): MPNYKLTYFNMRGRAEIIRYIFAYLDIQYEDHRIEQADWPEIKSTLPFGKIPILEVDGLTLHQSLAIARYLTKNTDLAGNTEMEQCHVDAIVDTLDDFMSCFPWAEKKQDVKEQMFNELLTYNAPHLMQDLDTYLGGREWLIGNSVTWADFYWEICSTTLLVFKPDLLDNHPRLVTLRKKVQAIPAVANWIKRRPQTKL

Structure (SMILES)	IC50 [nM]
CC(C)(O)[C@H]1CC[C@H](NC(=O)c2cnc3nc(N4CCC4)ncc3c2)CC1 [Example 79, 2-(Azetidin-1-yl)-N-((trans)-4-(2-hydroxypropan-2-yl)cyclohexyl)pyrido[2,3-d]pyrimidine-6-carboxamide]	10 to 79.4
COc1ncc2cc(C(=O)N[C@H]3CC[C@H](C(C)(C)O)CC3)cnc2n1 [Example 80, N-((trans)-4-(2-Hydroxypropan-2-yl)cyclohexyl)-2-methoxypyrido[2,3-d]pyrimidine-6-carboxamide]	100 to 1000
